Data published in patent publication US20130309306A1, “INTRAPULMONARY BENZODIAZEPINE FOR THE TREATMENT AND PREVENTION OF SEIZURES” (priority 2010, published 2013).

Test system: PTZ-induced seizures
Experiment: PTZ seizure threshold test, tonic extension endpoint, Example 2
Format: in vivo, mice
Protocol: NIH Swiss mice (22-30 g) were kept in a vivarium under controlled environmental conditions (temperature, 22-26° C.; humidity, 40-50%) with an artificial 12-h light/dark cycle. Wood chips were used in all cages. Experiments were performed during the light phase of the light/dark cycle after a minimum 30-min period of acclimation to the experimental room. The animal facilities were fully accredited by the Association for Assessment and Accreditation of Laboratory Animal Care. All studies were performed under protocols approved by the Animal Care and Use Committee of the University of California, Davis in strict compliance with the Guide for the Care and Use of Laboratory Animals of the National Research Council (National Academy Press, Washington, D.C.; on the internet at nap.edu/readingroom/books/labrats/).
Midazolam was administered as a commercially available injectable solution (midazolam hydrochloride, 10 mg/10 ml; APP Pharmaceuticals, Schaumburg, Ill., USA) containing sodium chloride (0.8% w/v), disodium edetate (0.01% w/v), benzyl alcohol as preservative (1% v/v) with HCl to adjust the pH 3-3.6. Pentylenetetrazol (PTZ) (Sigma-Aldrich, St. Louis, Mo., USA) was dissolved in 0.9% w/v saline. The remaining test substances were all obtained from Tocris Bioscience (Ellisville, Mo., USA) except for clonazepam, which was from Sigma-Aldrich. Finasteride was dissolved in 25% hydroxypropyl-β-cyclodextrin (Trappsol; Cyclodextrin Technologies Development, High Springs, Fla., U.S.A.). Metyrapone was dissolved in double distilled water and PK 11195 and clonazepam were suspended in 1% Tween 80 and adjusted to volume with saline.
PTZ seizure threshold was determined according to a protocol used previously in our laboratory (Dhir et al., 2011). Intravenous PTZ elicits a sequence of seizure signs beginning with twitch and progressing to clonus and tonic limb extension. In the present study, tonic extension was used as the endpoint. […] It is noteworthy that this is the endpoint originally used in studies characterizing the actions of midazolam against PTZ seizures in mice (Pieri, 1983 Br J Clin Pharmacol 16 Suppl 1: 17S-27S). A 27 gauge-¾ inch “butterfly” needle was inserted into the lateral tail vein and the needle was secured with a narrow piece of adhesive tape. The animal was placed inside a 2 L glass beaker with free aeration from the top and allowed to move freely. The needle was connected by polyethylene tubing to a Beckton, Dickinson 1 ml syringe mounted on an infusion pump (Model ‘11’ plus syringe pump; Harvard Apparatus, Holliston, Mass.). PTZ solution (10 mg/ml) was infused at a constant rate of 0.5 ml/min. The infusion was stopped at 3 min or at the onset of tonic extension, whichever occurred first. The threshold value (mg/kg) for tonic extension was determined according to the formula: (infusion duration [sec]×infusion rate [ml/min]×PTZ concentration [mg/ml]×1000)/(60 [sec]×weight of mouse [g]).
In an initial experiment, the dose-response relationship for midazolam elevation of seizure threshold was assessed at doses of 100 μg/kg to 5 mg/kg (15 min pretreatment time). […] PK 11195 was used at a dose (15 mg/kg) as in the study of Ugale et al. (2004 Brain Res. 2004 Oct. 8; 1023(1):102-11). Clonazepam was administered at a dose of 100 μg/kg (Akula et al., 2009). The volume of all intraperitoneal injections was 10 ml/kg.
Results are expressed as mean±S.E.M.; the significance of the difference in the responses of treatment groups with respect to control is based on one-way analysis of variance (ANOVA) followed by specific post-hoc comparisons using Tukey's test. Differences are considered statistically significant when the probability of type I error was less than 0.05.

## CCC(C)N(C)C(=O)c1cc2ccccc2c(-c2ccccc2Cl)n1 (centres unmarked) [PK 11195, 1-(2-chlorophenyl)-N-methyl-N-(1-methylpropyl)-3-isoquinolinecarboxamide]
PK 11195 15 mg/kg i.p.
  PTZ seizure threshold, by itself: did not affect the seizure threshold
PK 11195 15 mg/kg i.p. 30 min before clonazepam (FIG. 11 lower panel)
  effect on seizure threshold elevation produced by clonazepam: did not reduce the seizure threshold elevation
PK 11195 15 mg/kg i.p. 30 min before midazolam 500 μg/kg i.p. (FIG. 10)
  effect on threshold elevation produced by midazolam: significantly reduced the elevation in threshold

## O=C1CN=C(c2ccccc2Cl)c2cc([N+](=O)[O-])ccc2N1 [clonazepam]
Clonazepam 100 μg/kg i.p., 15 min before i.v. PTZ infusion, in the absence of finasteride
  increase in threshold for tonic extension (vs vehicle only control): 2.8 fold

## CC(C)(C)NC(=O)[C@H]1CC[C@H]2[C@@H]3CC[C@H]4NC(=O)C=C[C@]4(C)[C@H]3CC[C@]12C [finasteride]
Finasteride 100 mg/kg i.p. 5 min before midazolam 100 μg/kg intratracheal (FIG. 13)
  effect on threshold elevation caused by intratracheal midazolam: did significantly reduce the threshold elevation
Finasteride 100 mg/kg i.p. 5 min before midazolam 500 μg/kg i.p. (FIG. 8)
  effect on threshold elevation caused by midazolam: partially reduce the threshold elevation
Finasteride 100 mg/kg i.p. before clonazepam 100 μg/kg i.p. (FIG. 11 upper panel)
  effect on seizure threshold elevation produced by clonazepam: did reduce the seizure threshold elevation
Finasteride 100 mg/kg i.p., no midazolam (FIG. 8)
  PTZ seizure threshold, pretreatment by itself: did not alter the PTZ seizure threshold
Finasteride 50 and 100 mg/kg i.p. (FIG. 13)
  PTZ seizure threshold, pretreatment by itself: did not alter the PTZ seizure threshold
Finasteride before lower dose of clonazepam 25 μg/kg
  effect on seizure threshold elevation produced by clonazepam: trend toward an effect of finasteride, although it did not reach statistical significance

## CCOC(=O)c1ncn2c1CN(C)C(=O)c1cc(F)ccc1-2 [flumazenil]
Flumazenil 5 mg/kg i.p. 5 min before midazolam 100 and 200 μg/kg intratracheal (FIG. 12)
  effect on threshold elevation caused by intratracheal midazolam: did abolish the threshold elevation
Flumazenil 5 mg/kg i.p. (FIG. 12)
  PTZ seizure threshold, pretreatment by itself: did not alter the PTZ seizure threshold

## CC(C)(C(=O)c1cccnc1)c1cccnc1 [metyrapone]
Metyrapone 100 mg/kg i.p. 15 min before midazolam 500 μg/kg i.p. (FIG. 9)
  PTZ seizure threshold when administered prior to midazolam: further increment in threshold
Metyrapone 100 mg/kg i.p. (FIG. 9)
  PTZ seizure threshold, by itself: significant elevation in the threshold
